How the values were obtained:
Type in all cases: cell-based
[1] = target: T1, 17β-hydroxysteroid dehydrogenase type 2 (17β-HSD type 2) (Homo sapiens, UniProt P37059); assay: Inhibition of 17β-HSD type 2 in MCF-7 cells stably expressing the isoenzyme (tritium labeled estradiol conversion, HPLC); conditions: MCF7, MCF-7 cells expressing 17β-HSD type 2, 2 nM tritium labeled estradiol; for inhibition at 1 µM: 1 μM test compound, read-out: % Inhibition HSD2 1 μM; for inhibition at 10 µM: 10 μM test compound, read-out: % Inhibition HSD2 10 μM
T1 construct: expressed in transfected cells; host or cells: MCF-7
T1 sequence (P37059 1-387): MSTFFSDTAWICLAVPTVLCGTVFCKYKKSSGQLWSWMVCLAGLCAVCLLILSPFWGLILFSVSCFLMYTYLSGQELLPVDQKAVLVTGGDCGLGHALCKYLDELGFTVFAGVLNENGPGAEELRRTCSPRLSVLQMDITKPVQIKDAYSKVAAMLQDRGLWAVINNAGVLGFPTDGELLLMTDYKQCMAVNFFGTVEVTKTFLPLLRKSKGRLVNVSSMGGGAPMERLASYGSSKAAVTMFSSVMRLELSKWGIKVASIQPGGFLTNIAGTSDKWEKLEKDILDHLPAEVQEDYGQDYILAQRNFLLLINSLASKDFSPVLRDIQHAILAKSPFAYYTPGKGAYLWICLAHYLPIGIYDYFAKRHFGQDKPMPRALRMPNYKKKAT
How it was run: (§1)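 Cells: stable MCF-7 transfectants per isoenzyme. Step one, add compound (two concentrations) plus 2 nM labelled substrate to growth medium. Step two, remove medium at a set time and stop with trichloroacetic acid. Step three, quantify conversion by HPLC with flow scintillation.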

[2] = target: T2, 17β-hydroxysteroid dehydrogenase type 3 (17β-HSD type 3) (Homo sapiens, UniProt P37058); assay: Inhibition of 17β-HSD type 3 in MCF-7 cells stably expressing the isoenzyme (tritium labeled androstenedione conversion, HPLC); conditions: MCF7, MCF-7 cells expressing 17β-HSD type 3, 2 nM tritium labeled androstenedione; for inhibition at 1 µM: 1 μM test compound, read-out: % Inhibition HSD3 1 μM; for inhibition at 10 µM: 10 μM test compound, read-out: % Inhibition HSD3 10 μM
T2 construct: expressed in transfected cells; host or cells: MCF-7
T2 sequence (P37058 1-310): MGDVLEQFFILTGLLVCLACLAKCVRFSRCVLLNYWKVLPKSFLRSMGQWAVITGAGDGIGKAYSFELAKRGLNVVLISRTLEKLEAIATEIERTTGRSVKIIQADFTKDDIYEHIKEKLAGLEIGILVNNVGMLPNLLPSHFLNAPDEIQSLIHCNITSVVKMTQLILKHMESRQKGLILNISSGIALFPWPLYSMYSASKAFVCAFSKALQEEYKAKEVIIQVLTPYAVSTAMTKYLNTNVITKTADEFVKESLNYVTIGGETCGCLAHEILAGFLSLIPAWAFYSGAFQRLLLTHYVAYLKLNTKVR
How it was run: as §1

[3] = target: T3, 17β-hydroxysteroid dehydrogenase type 1 (17β-HSD type 1) (Homo sapiens, UniProt P14061); assay: Inhibition of 17β-HSD type 1 in MCF-7 cells stably expressing the isoenzyme (tritium labeled estrone conversion, HPLC); conditions: MCF7, MCF-7 cells expressing 17β-HSD type 1, 2 nM tritium labeled estrone; for inhibition at 1 µM: 1 μM test compound, read-out: % Inhibition HSD1 1 μM; for inhibition at 10 µM: 10 μM test compound, read-out: % Inhibition HSD1 10 μM
T3 construct: expressed in transfected cells; host or cells: MCF-7
T3 sequence (P14061 1-328): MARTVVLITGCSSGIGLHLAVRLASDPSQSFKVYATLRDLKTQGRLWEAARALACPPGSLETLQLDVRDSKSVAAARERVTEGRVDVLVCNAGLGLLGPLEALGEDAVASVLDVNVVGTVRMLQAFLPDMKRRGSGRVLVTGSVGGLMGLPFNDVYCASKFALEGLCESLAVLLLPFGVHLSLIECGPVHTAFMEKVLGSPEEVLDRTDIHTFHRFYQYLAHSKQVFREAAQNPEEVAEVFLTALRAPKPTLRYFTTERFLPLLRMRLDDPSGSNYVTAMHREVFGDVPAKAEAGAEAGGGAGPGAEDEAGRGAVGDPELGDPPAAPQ
How it was run: as §1

Row | SMILES | inhibition at 1 µM [1] [%] | inhibition at 10 µM [1] [%] | inhibition at 1 µM [2] [%] | inhibition at 10 µM [2] [%] | inhibition at 1 µM [3] [%] | inhibition at 10 µM [3] [%]
1 | COc1cc(-c2nc3sc4c(O)cccc4c3c(=O)n2Cc2ccc(Br)o2)cc(OC)c1OC [No. 122, 3-(5-Bromofuran-2-ylmethy1)-8-hydroxy-2-(3,4,5-trimethoxyphenyl)-3H-benzo[4,5]thieno[2,3-d]pyrimidin-4-one] | 15.4 | 26.2 | 9.4 | 56.2 | 13.9 | 49
2 | COc1cc(-c2nc3sc4c(c3c(=O)n2Cc2ccccc2)CCC(Cl)C4=O)c(Cl)c(OC)c1OC (stereo not drawn) [No. 123, 3-Benzyl-7-chloro-2-(2-chloro-3,4,5-trimethoxyphenyl)-6,7-dihydro-3H,5H-benzo[4,5]thieno[2,3-d]pyrimidine-4,8-dione] | 24.6 | 40.2 | 1.3 | 29.1 | 19.4 | 62.9
3 | COc1cc(-c2nc3sc4c(O)cccc4c3c(=O)n2Cc2ccccc2)c(Cl)c(OC)c1OC [No. 124, 3-Benzyl-2-(2-chloro-3,4,5-trimethoxyphenyl)-8-hydroxy-3H-benzo[4,5]thieno[2,3-d]pyrimidin-4-one] | 0.2 | 17.6 | 8.3 | 42.4 | 40.2 | 73.3
4 | CCC(C)Cn1c(-c2cc(OC)c(OC)c(OC)c2)nc2sc3c(c2c1=O)CCCC3 (stereo not drawn) [No. 125, 3-(2-Methylbutyl)-2-(3,4,5-trimethoxyphenyl)-5,6,7,8-tetrahydro-3H-benzo[4,5]thieno[2,3-d]pyrimidin-4-one] | 11.7 | 19.8 | 10.9 | 21 | 34.7 | 49.9
5 | CCC(C)Cn1c(-c2cc(OC)c(OC)c(OC)c2)nc2sc3c(c2c1=O)CCCC3=O (stereo not drawn) [No. 126, 3-(2-Methylbutyl)-2-(3,4,5-trimethoxyphenyl)-6,7-dihydro-3H,5H-benzo[4,5]thieno[2,3-d]pyrimidine-4,8-dione] | 6.6 | -9 | 8 | 36.3 | 27.4 | 59.3
6 | CCC(C)Cn1c(-c2cc(OC)c(OC)c(OC)c2)nc2sc3c(c2c1=O)CCC(Br)C3=O (stereo not drawn) [No. 127, 7-Bromo-3-(2-methylbutyl)-2-(3,4,5-trimethoxyphenyl)-6,7-dihydro-3H,5H-benzo[4,5]thieno[2,3-d]pyrimidine-4,8-dione] | -0.4 | 5.7 | 4.8 | 29.3 | 40.3 | 91.3
7 | CCC(C)Cn1c(-c2cc(OC)c(OC)c(OC)c2Br)nc2sc3c(c2c1=O)CCC(Br)(Br)C3=O (stereo not drawn) [No. 128, 7,7-Dibromo-2-(2-bromo-3,4,5-trimethoxyphenyl)-3-(2-methylbutyl)-6,7-dihydro-3H,5-benzo[4,5]thieno[2,3-d]pyrimidine-4,8-dione] | -4.9 | 0 | 4.7 | 6.3 | 17.9 | 25.9
8 | CCC(C)Cn1c(-c2cc(OC)c(OC)c(OC)c2)nc2sc3c(O)cccc3c2c1=O (stereo not drawn) [No. 129, 8-Hydroxy-3-(2-methylbutyl)-2-(3,4,5-trimethoxyphenyl)-3H-benzo[4,5]thieno[2,3-d]pyrimidin-4-one] | 23.9 | 53.1 | 34.7 | 78.6 | 46.8 | 85.3
9 | COc1cc(-c2nc3sc4c(c3c(=O)n2CC2CCCO2)CCCC4=O)cc(OC)c1OC (stereo not drawn) [No. 131, 3-(Tetrahydro-furan-2-ylmethyl)-2-(3,4,5-trimethoxyphenyl)-6,7-dihydro-3H,5H-benzo[4,5]thieno[2,3-d]pyrimidine-4,8-dione] | 31.2 | 40.1 | 30.9 | 80.1 | 37.7 | 84.7
10 | COc1cc(-c2nc3sc4c(c3c(=O)n2CC2CCCO2)CCC(Br)C4=O)c(Br)c(OC)c1OC (stereo not drawn) [No. 132, 7-Bromo-2-(2-bromo-3,4,5-trimethoxyphenyl)-3-(tetrahydrofuran-2-ylmethyl)-6,7-dihydro-3H,5H-benzo[4,5]thieno[2,3-d]pyrimidine-4,8-dione] | 22.8 | 16.9 | 16.9 | 24.9 | 23.8 | 53.9
11 | COc1cc(-c2nc3sc4c(O)cccc4c3c(=O)n2CC2CCCO2)c(Br)c(OC)c1OC (stereo not drawn) [No. 133, 2-(2-Bromo-3,4,5-trimethoxyphenyl)-8-hydroxy-3-(tetrahydrofuran-2-ylmethyl)-3H-benzo[4,5]thieno[2,3-d]pyrimidin-4-one] | 6.8 | 24.3 | 18.7 | 37.7 | 18.2 | 58.4
12 | CCCCn1c(-c2cccs2)nc2sc3c(c2c1=O)CCCC3=O [No. 134, 3-Butyl-2-thiophen-2-yl-6,7-dihydro-3H,5H-benzo[4,5]thieno[2,3-d]pyrimidine-4,8-dione] | 9.9 | 11.6 | 17.2 | 21.6 | 16 | 7.9
13 | COc1cc(-c2nc3sc4c(c3c(=O)n2CC(C)C)C(Br)CCC4=O)cc(OC)c1OC (stereo not drawn) [No. 135, 5-Bromo-3-isobutyl-2-(3,4,5-trimethoxyphenyl)-6,7-dihydro-3H,5H-benzo[4,5]thieno[2,3-d]pyrimidine-4,8-dione] | 19.1 | 34.6 | 21.8 | 93.1 | 54 | 96.6
14 | COc1cc(-c2nc3sc4c(OC)cccc4c3c(=O)n2CC(C)C)cc(OC)c1OC [No. 136, 3-Isobutyl-8-methoxy-2-(3,4,5-trimethoxyphenyl)-3H-benzo[4,5]thieno[2,3-d]pyrimidin-4-one] | 23.2 | 8.8 | 3.5 | 11 | 3.6 | 8.5
15 | COc1cc(-c2nc3sc4c(c3c(=O)n2Cc2ccccc2)C(Br)CCC4=O)cc(OC)c1OC (stereo not drawn) [No. 137, 3-Benzyl-5-bromo-2-(3,4,5-trimethoxyphenyl)-6,7-dihydro-3H,5H-benzo[4,5]thieno[2,3-d]pyrimidine-4,8-dione] | 28.1 | 32.9 | 19.3 | 49.8 | 35 | 76
16 | COc1cc(-c2nc3sc4c(OC)cccc4c3c(=O)n2Cc2ccccc2)cc(OC)c1OC [No. 138, 3-Benzyl-8-methoxy-2-(3,4,5-trimethoxyphenyl)-3H-benzo[4,5]thieno[2,3-d]pyrimidin-4-one] | 25.7 | 24.8 | 6.8 | 23 | 20.6 | 21.5
17 | COc1cc(-c2nc3sc4c(O)cccc4c3c(=O)n2CC2CCCO2)c(Cl)c(OC)c1OC (stereo not drawn) [No. 140, 2-(2-Chloro-3,4,5-trimethoxyphenyl)-8-hydroxy-3-(tetrahydrofuran-2-ylmethyl)-3H-benzo[4,5]thieno[2,3-d]pyrimidin-4-one] | 10.3 | 36.8 | 8.8 | 63.5 | 39.5 | 81
